Source: PMC7520961, “Safety evaluation of the interchangeable use of robenacoxib in commercially-available tablets and solution for injection in cats” (BMC Veterinary Research, 2020)

Key:
cats [1] = settings: in vivo
Protocol: Cageside observations were performed twice daily on all animals for morbidity, mortality, injury, and the availability of food and water. Detailed clinical observations were performed by trained technical staff twice per day beginning on Day − 2. Observations were at least six hours apart with the first occurring 1–2 hours after dose administration. Observations included, but were not limited to eyes, mucus membranes, respiratory system, circulatory system, autonomic and central nervous systems, somatomotor activity and behavior pattern. Body weight was measured on Day − 19 and weekly beginning Day − 14. Individual food consumption was measured daily beginning on Day − 7. Injection sites were evaluated for erythema, edema, heat, and pain response (i.e., vocalization upon palpation using a 3-point Likert scale) on each day of subcutaneous dosing prior to and 7 to 8 hours after dosing and once daily for three days following each dose administration. If any injection site was abnormal at the end of the observation period, additional assessments were carried out until the cat returned to normal or until end of the study.

cats [2] = experiment: Hematology, coagulation and urinalysis (target animal safety study); format: in vivo, cat; settings: for Absolute Punctate Reticulocyte (mean ± SD) / Basophils (mean ± SD) / Other Cells (mean ± SD) / Monocytes (mean ± SD) / Eosinophils (mean ± SD) / Neutrophils (mean ± SD) / Lymphocytes (mean ± SD) / Erythrocytes (mean ± SD) / Leukocytes (mean ± SD) / Hemoglobin (mean ± SD) / Prothrombin Time (mean ± SD) / APTT (mean ± SD) / MCH (mean ± SD) / Absolute Aggregate Reticulocyte (mean ± SD) / Hematocrit (mean ± SD) / MCHC (mean ± SD) / MCV (mean ± SD) / Platelets (mean ± SD) / Fibrinogen (mean ± SD): post-treatment, average of days 13 and 37; for Basophils (mean ± SD): reference range 0 - 0.03; for Other Cells (mean ± SD): reference range 0 - 0.05; for Monocytes (mean ± SD): reference range 0 - 0.81; for Eosinophils (mean ± SD): reference range 0 - 1.31, significant treatment x sex effect (p<0.1); for Neutrophils (mean ± SD): reference range 0 - 12.65; for Lymphocytes (mean ± SD): reference range 2.18 - 13.48; for Erythrocytes (mean ± SD): reference range 5.36 - 10.78; for Leukocytes (mean ± SD): reference range 6.3 - 27.2; for Hemoglobin (mean ± SD): reference range 7.5 - 14.4; for Prothrombin Time (mean ± SD): reference range 8.7 - 11; for APTT (mean ± SD): reference range 11.2 - 18.7; for MCH (mean ± SD): reference range 11.9 - 15.1; for Absolute Aggregate Reticulocyte (mean ± SD): reference range 12.9 - 106.6; for Hematocrit (mean ± SD): reference range 22.5 - 41.6; for MCHC (mean ± SD): reference range 30.4 - 38; for MCV (mean ± SD): reference range 34.3 - 47.5; for Platelets (mean ± SD): reference range 107 - 779; for Fibrinogen (mean ± SD): reference range 152 - 278
Protocol: (§1) Buccal mucosal bleeding times (BMBT) were measured on all animals on Days − 5 and 36 following ECG examinations while the animals were sedated. The upper lip was everted and a Surgicutt incision device was used to create a small incision (approximately 1 mm in depth and 3.5 mm in length). Blood flow from the incision site was blotted using filter paper below the incision. The elapsed time from the triggering of the device until blood no longer appeared on the filter paper was recorded as the bleed time. Clinical pathology evaluations were conducted on all animals on Days − 13 and − 6 and prior to dosing on Days 13 and 37. Because reference values given by the laboratory were (slightly) different for males and females, they were combined (i.e. lower of the two lower bounds to higher of the two upper bounds) for the tables. Animals were fasted 8–12 hours overnight prior to blood collection. Blood samples (3.0 mL) were collected from the jugular vein into tubes containing K3EDTA for evaluation of hematology parameters, sodium citrate for evaluation of coagulation parameters, and serum separators with no anticoagulant for the clinical chemistry samples. Urine samples were collected on Days 13, 6, 13, and 37 by replacing the litter in the litter box with NoSorb® (Creative Science, LLC, Ballwin, MO, USA) for at least 16 hours. Hematology variables were determined using an Advia 120 or Advia 2120 (Siemens, Munich, Germany), light microscope, or sediplast column (Polymedco, NY, US). Coagulation variables were determined using a Stago Compact (Diagnostica Stago, Parsippany, NJ, US), clinical chemistry variables were determined using an Olympus AU2700 or AU640e (Olympus Diagnostics, Southall, UK), and urinalysis variables were determined using a Clinitek-500 or Atlas (Siemens, Munich, Germany), Reichert VET 360 (Reichert Technologies, Buffalo, New York, USA), or light microscope.
Post-treatment values were analyzed using RMANCOVA, with treatment group, sex, time, and their interactions as fixed model effects and the pre-treatment value measured closest to dosing as a covariate. Repeated measurements in the same animal were modeled using a compound symmetry or heterogeneous compound symmetry correlation structure (for food consumption: autoregressive first-order or heterogeneous autoregressive first-order); the model with the smallest Akaike’s Information Criterion was selected for each outcome.
If any of the interactions involving treatment was significant (p < 0.1 for the two-factor interactions or p < 0.05 for the three-factor interaction), it was inappropriate to evaluate the main or overall treatment effect independently of the interacting factor and, as such, treatment comparisons were conducted for each level of the interacting factor. If none of the interactions involving treatment were significant, overall treatment differences were assessed.

[3] = tested on: healthy adult domestic short-hair cats; design: method as in ref 13 = [13]; 13. US Food and Drug Administration Freedom of Information Summary: Original New Animal Drug Application NADA 141–443 (Onsior Robenacoxib Injection Cats) 2015.; settings: 10 mg/kg robenacoxib solution for injection for three consecutive days; cited from earlier work
cats [4] = settings: in vivo; remark: listed apart in the source
cats [5] = experiment: Buccal mucosal bleeding time (BMBT); format: in vivo; settings: one 2X cat
Protocol: as §1, with “Animals were fasted 8–12 hours overnight prior to blood collection. Blood samples (3.0 mL) were collected from the jugular vein into tubes containing K3EDTA for evaluation of hematology parameters, sodium citrate for evaluation of coagulation parameters, and serum separators with no anticoagulant for the clinical chemistry samples. Urine samples were collected on Days 13, 6, 13, and 37 by replacing the litter in the litter box with NoSorb® (Creative Science, LLC, Ballwin, MO, USA) for at least 16 hours.” left out

cats [6] = tested on: cats; design: method as in ref 12 = [12]; 12. US Food and Drug Administration Freedom of Information Summary: Original New Animal Drug Application NADA 141–320 (Onsior Robenacoxib Tablets for Cats) 2011.; settings: six-month target animal safety study, oral robenacoxib at 1, 3 and 5X; cited from earlier work
[7] = design: method as in PMID 19161452, PMID 23438125; settings: elimination in the cat; cited from earlier work
[8] = 1X (oral ≥2.4, SC 2.0 mg/kg/day)
[9] = 2X (oral ≥4.8, SC 4.0 mg/kg/day)
[10] = 3X (oral ≥7.2, SC 6.0 mg/kg/day)

SMILES: CCc1ccc(Nc2c(F)c(F)cc(F)c2F)c(CC(=O)O)c1 [robenacoxib]
- Emesis (cats [1]): observed once on Days 36 and 37
- duration of injection site edema post injection (cats [1]): up to 120 hours
- injection site erythema, heat or pain (cats [1]): no signs
- time to resolution of injection site changes (cats [1]): ≤ 72 h
- occurrence of injection site edema vs control animals (cats [1]; sc): significantly higher
- Absolute Punctate Reticulocyte (mean ± SD) (cats [2]; [8]): 2277 ± 658 10^3/µL
- Basophils (mean ± SD) (cats [2]; [8]): 0.006 ± 0.011 10^3/µL
- Other Cells (mean ± SD) (cats [2]; [8]): 0.62 ± 0.95 10^3/µL
- Monocytes (mean ± SD) (cats [2]; [8]): 0.27 ± 0.22 10^3/µL
- Eosinophils (mean ± SD) (cats [2]; [8]): 1.08 ± 0.40 10^3/µL
- Neutrophils (mean ± SD) (cats [2]; [8]): 5.28 ± 1.75 10^3/µL
- Lymphocytes (mean ± SD) (cats [2]; [8]): 6.69 ± 2.61 10^3/µL
- Erythrocytes (mean ± SD) (cats [2]; [8]): 7.24 ± 0.88 10^6/µL
- Leukocytes (mean ± SD) (cats [2]; [8]): 13.95 ± 4.43 10^3/µL
- Hemoglobin (mean ± SD) (cats [2]; [8]): 9.96 ± 0.98 g/dL
- Prothrombin Time (mean ± SD) (cats [2]; [8]): 11.03 ± 0.62 s
- APTT (mean ± SD) (cats [2]; [8]): 23.35 ± 16.35 s
- MCH (mean ± SD) (cats [2]; [8]): 13.82 ± 0.81 pg
- Absolute Aggregate Reticulocyte (mean ± SD) (cats [2]; [8]): 4.02 ± 4.81 10^3/µL
- Hematocrit (mean ± SD) (cats [2]; [8]): 30.66 ± 3.36%
- MCHC (mean ± SD) (cats [2]; [8]): 32.53 ± 0.55 g/dL
- MCV (mean ± SD) (cats [2]; [8]): 42.49 ± 2.78 fL
- Platelets (mean ± SD) (cats [2]; [8]): 253.7 ± 157.1 10^3/µL
- Fibrinogen (mean ± SD) (cats [2]; [8]): 180.8 ± 37.0 mg/dL
- Absolute Punctate Reticulocyte (mean ± SD) (cats [2]; [9]): 1915 ± 702 10^3/µL
- Basophils (mean ± SD) (cats [2]; [9]): 0.010 ± 0.011 10^3/µL
- Other Cells (mean ± SD) (cats [2]; [9]): 0.30 ± 0.71 10^3/µL
- Monocytes (mean ± SD) (cats [2]; [9]): 0.28 ± 0.14 10^3/µL
- Eosinophils (mean ± SD) (cats [2]; [9]): 0.94 ± 0.52 10^3/µL
- Neutrophils (mean ± SD) (cats [2]; [9]): 5.73 ± 1.34 10^3/µL
- Lymphocytes (mean ± SD) (cats [2]; [9]): 6.16 ± 1.81 10^3/µL
- Erythrocytes (mean ± SD) (cats [2]; [9]): 7.58 ± 0.82 10^6/µL
- Leukocytes (mean ± SD) (cats [2]; [9]): 13.43 ± 3.10 10^3/µL
- Hemoglobin (mean ± SD) (cats [2]; [9]): 9.99 ± 1.06 g/dL
- Prothrombin Time (mean ± SD) (cats [2]; [9]): 10.77 ± 0.56 s
- APTT (mean ± SD) (cats [2]; [9]): 16.68 ± 2.52 s
- MCH (mean ± SD) (cats [2]; [9]): 13.21 ± 0.99 pg
- Absolute Aggregate Reticulocyte (mean ± SD) (cats [2]; [9]): 1.38 ± 4.14 10^3/µL
- Hematocrit (mean ± SD) (cats [2]; [9]): 30.17 ± 3.65%
- MCHC (mean ± SD) (cats [2]; [9]): 33.14 ± 0.65 g/dL
- MCV (mean ± SD) (cats [2]; [9]): 39.86 ± 3.11 fL
- Platelets (mean ± SD) (cats [2]; [9]): 334.7 ± 155.9 10^3/µL
- Fibrinogen (mean ± SD) (cats [2]; [9]): 180.3 ± 22.2 mg/dL
- Absolute Punctate Reticulocyte (mean ± SD) (cats [2]; [10]): 2129 ± 555 10^3/µL
- Basophils (mean ± SD) (cats [2]; [10]): 0.006 ± 0.007 10^3/µL
- Other Cells (mean ± SD) (cats [2]; [10]): 0.44 ± 0.92 10^3/µL
- Monocytes (mean ± SD) (cats [2]; [10]): 0.26 ± 0.15 10^3/µL
- Eosinophils (mean ± SD) (cats [2]; [10]): 1.10 ± 0.40 10^3/µL
- Neutrophils (mean ± SD) (cats [2]; [10]): 5.46 ± 1.04 10^3/µL
- Lymphocytes (mean ± SD) (cats [2]; [10]): 7.50 ± 2.64 10^3/µL
- Erythrocytes (mean ± SD) (cats [2]; [10]): 7.73 ± 0.88 10^6/µL
- Leukocytes (mean ± SD) (cats [2]; [10]): 14.76 ± 3.66 10^3/µL
- Hemoglobin (mean ± SD) (cats [2]; [10]): 10.13 ± 1.15 g/dL
- Prothrombin Time (mean ± SD) (cats [2]; [10]): 10.84 ± 0.46 s
- APTT (mean ± SD) (cats [2]; [10]): 16.83 ± 2.52 s
- MCH (mean ± SD) (cats [2]; [10]): 13.11 ± 0.65 pg
- Absolute Aggregate Reticulocyte (mean ± SD) (cats [2]; [10]): 1.45 ± 4.17 10^3/µL
- Hematocrit (mean ± SD) (cats [2]; [10]): 30.90 ± 3.81%
- MCHC (mean ± SD) (cats [2]; [10]): 32.80 ± 1.57 g/dL
- MCV (mean ± SD) (cats [2]; [10]): 40.03 ± 2.65 fL
- Platelets (mean ± SD) (cats [2]; [10]): 301.4 ± 173.8 10^3/µL
- Fibrinogen (mean ± SD) (cats [2]; [10]): 172.5 ± 16.3 mg/dL
- coagulation or urinalysis values between groups (cats [2]; all groups during the study): no significant differences
- injection site observations [3]: transient, fluid-filled, painless enlargements at the injection sites that disappeared over a period of 72 hours
- microscopic findings at injection sites [3]: minimal subcutaneous inflammatory cell infiltration
- opthalmoscopic, physical and neurological examinations (cats [4]): no treatment-related effects
- increase in BMBT value compared to pre-treatment value (cats [5]): approximately seven-fold
- QT interval effect (cats [6]): dose-dependent QT prolongation
- arrhythmias (cats [6]): no arrhythmias were documented
- half-life [7]: less than 2 hours
